Assay results taken from patent US20110176998A1, “IMAGING AND THERAPY OF VIRUS-ASSOCIATED TUMORS” (THE JOHNS HOPKINS UNIVERSITY, priority 2007, published 2011).

Legend:
[1] = serum and whole blood; 24 hour period; cited from earlier work
[2] = cited from earlier work
[3] = earlier clinical use of FIAU (toxicity); type: in vivo, humans; conditions: conservatively estimated
Method: With regard to the potential clinical use of BETR therapy, FIAU-associated toxicity warrants discussion. FIAU was previously investigated as an antiviral agent. […] In those trials, treatment for less than four weeks with a cumulative dose less than 200 mg was not associated with either clinical or biochemical evidence of toxicity. Thus, the “no-effect dose” of FIAU might be conservatively estimated to be on the order of 0.1 mg/kg per administration. […] Extrapolating from xenograft experiments, a radiotherapeutic effect is likely to be achieved at doses of FIAU that are orders of magnitude times less than the no-effect FIAU dose in humans.

[4] = in vivo; cited from earlier work

In the case of `O=c1[nH]c(=O)n([C@@H]2O[C@H](CO)[C@@H](O)[C@@H]2F)cc1I` [FIAU, 2′-fluoro-2′-deoxy-β-D-5-iodouracil-arabinofuranoside], the “labeled compound remaining unchanged” value [1] is given as 97.8%±0.1%, the “toxicity of chronic dosing” value ([2]; earlier antiviral trials) is given as “hepatic damage and in some cases fatality” and the “cumulative dose not associated with clinical or biochemical evidence of toxicity” value ([2]; treatment for less than four weeks) is given as “less than 200 mg”. For the same compound, the no-effect dose [3] was ~0.1 mg/kg per administration and the blood-brain barrier penetration [4] was “does not penetrate the blood-brain barrier”.
